Results as given in patent publication US20220073536A1 (Rigel Pharmaceuticals, Inc., priority 2003, published 2022).
Where “and” joins values, the source holds several entries; their conditions need not be identical. Equal values may be shown once.

How the values were obtained:
[1] = system: cultured human mast cells (CHMC); test: CHMC low cell density ionomycin activation: tryptase assay; format: cell-based; details: Homo sapiens, Mast cell, 3 pt, read-out: LD Tryptase, CHMC, Iono, 3 pt
[2] = system: C57BL/6 mice; test: Mouse cutaneous Reverse Passive Arthus (RPA) reaction, edema; format: in vivo
Text: Immune complex (IC)-mediated acute inflammatory tissue injury is implicated in a variety of human autoimmune diseases, including vasculitis syndrome, sick serum syndrome, systemic lupus erythematosus (SLE), rheumatoid arthritis, Goodpasture's syndrome, and glomerulonephritis. The classical experimental model for IC-mediated tissue injury is the reverse passive Arthus reaction. The RPA reaction model is a convenient in vivo method to study localized inflammation, induced by ICs, without systemic effects. Intradermal injection of antibodies (Abs) specific to chicken egg albumin (rabbit anti-OVA IgG), followed by intravenous (IV) injection of antigens (Ags), specifically chicken egg albumin (ovalbumin, OVA), causes perivascular deposition of ICs and a rapid inflammatory response characterized by edema, neutrophil infiltration and hemorrhage at the injection sites. Aspects of the mouse RPA reaction model resemble the inflammatory response of patients with rheumatoid arthritis, SLE and glomerulonephritis.
(§1) In this model system, test compounds are administered at several timepoints prior to administration of Abs and Ags. A solution of rabbit anti-OVA IgG ([…] in 25 μl/mouse) is injected intradermally, and immediately following is an intravenous injection of chicken egg albumin (20 mg/kg of body weight) in a solution containing 1% Evans blue dye. The degree of edema and hemorrhage is measured in the dorsal skin of C57BL/6 mice using the Evan's Blue dye as an indicator of local tissue damage. Purified polyclonal rabbit IgG is used as a control.
Pretreatment time, in which the test compounds are administered prior to Ab/Ag challenge, depends on the pharmacokinetic (PK) properties of each individual compound. Four hours after induction of Arthus reaction, mice are euthanized, and tissues are harvested for assessment of edema. This model system allows us to rapidly screen the in vivo activity of many inhibitors.
(§2) All compounds tested were administered by the oral route.

[3] = system: cultured human mast cells (CHMC); test: CHMC low cell density IgE activation: tryptase assay; format: cell-based; details: Homo sapiens, Mast cell, IgE activation
Procedure, shortened: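 Fluorogenic readout of tryptase released into the supernatant (30 min substrate incubation, room temperature) measures degranulation. Cells were plated at low density (1000–1500/well, varied by donor) and triggered with anti-IgE for 30 min at 37 °C.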

[4] = Plasma concentration in the mouse RPA reaction study; format: in vivo
Method: as §1
Pretreatment time, in which the test compounds are administered prior to Ab/Ag challenge, depends on the pharmacokinetic (PK) properties of each individual compound. Four hours after induction of Arthus reaction, mice are euthanized, and tissues are harvested for assessment of edema.
as §2

[5] = 0.1 mg/kg oral, pretreatment time 0.5 hrs
[6] = 0.5 mg/kg oral, pretreatment time 0.5 hrs
[7] = 1 mg/kg oral, pretreatment time 0.5 hrs
[8] = 5 mg/kg oral, pretreatment time 0.5 hrs
[9] = oral, dosage 0.5, pretreatment 5
[10] = oral, printed in dosage position 0.5, in pretreatment position 15
[11] = low cell density, 3 pt, read-out: LD Tryptase, CHMC, IgE, 3 pt
[12] = low cell density, 8 pt, read-out: LD Tryptase, CHMC, IgE, 8 pt

## Cc1nc2ccc(Nc3ncc(F)c(Nc4ccc5c(c4)NC(=O)C(C)(C)O5)n3)cc2[nH]1 [Compound 810, N4-(2,2-Dimethyl-3-oxo-4H-benz[1,4]oxazin-6-yl)-5-fluoro-N2-(2-methyl-3H-benzimidazol-5-yl)-2,4-pyrimidinediamine]
[1]; low cell density CHMC, tryptase release
  IC50: > 10 µM
[2]; [5]
  % inhibition to vehicle control Edema Size ± SEM: 69.5 ± 19.6%
[2]; [6]
  % inhibition to vehicle control Edema Size ± SEM: 60.9 ± 9.6%
[2]; [7]
  % inhibition to vehicle control Edema Size ± SEM: 81.3% and 81.3 ± 8.4%
[2]; [8]
  % inhibition to vehicle control Edema Size ± SEM: 92.1 ± 3.1%
[3]; low cell density CHMC, tryptase release, 3 pt, read-out: LD Tryptase, CHMC, IgE, 3 pt
  IC50: < 10 µM
[3]; low cell density CHMC, tryptase release, 8 pt, read-out: LD Tryptase, CHMC, IgE, 8 pt
  IC50: < 10 µM

## Cn1c(N2CCOCC2)nc2cc(Nc3ncc(F)c(Nc4ccc5c(c4)NC(=O)C(C)(C)O5)n3)ccc21 [Compound 944, N4-(2,2-Dimethyl-3-oxo-4H-benz[1,4]oxazin-6-yl)-5-fluoro-N2-[1-methyl-2-(4-morpholino)benzimidazol-5-yl]-2,4-pyrimidinediamine]
[4]; [9]
  Exposure = Pretreatment Time + 4 hours Plasma Concentration ± SEM: 3.4 ± 9.1 ng/mL
  Satellite: At time of challenge Plasma Concentration ± SEM: 22.1 ± 52.4 ng/mL
[4]; [10]
  Exposure = Pretreatment Time + 4 hours Plasma Concentration ± SEM: 85.1 ± 161.9 ng/mL
  Satellite: At time of challenge Plasma Concentration ± SEM: 1074.0 ± 492.3 ng/mL
[2]; 2 mg/kg oral, pretreatment time 1 hr
  % inhibition to vehicle control Edema Size ± SEM: 39.3 ± 13.8%
[2]; 5 mg/kg oral, pretreatment time 1 hr
  % inhibition to vehicle control Edema Size ± SEM: 48.4 ± 12.0%
[2]; 15 mg/kg oral, pretreatment time 1 hr
  % inhibition to vehicle control Edema Size ± SEM: 56.1 ± 9.2%
[2]; [9]
  % inhibition to vehicle control Edema Size ± SEM: −16.0 ± 17.3%
[2]; [10]
  % inhibition to vehicle control Edema Size ± SEM: 8.3 ± 13.4%
[3]; [11]
  IC50: < 10 µM
[3]; [12]
  IC50: < 10 µM

## COc1c(C)cc(Nc2ncc(F)c(Nc3ccc4c(c3)NC(=O)C(C)(C)O4)n2)cc1Cl.Cc1ccc(S(=O)(=O)O)cc1 [Compound 994, N2-(3-Chloro-4-methoxy-5-methylphenyl)-N4-(2,2-dimethyl-3-oxo-4H-benz[1,4]oxazin-6-yl)-5-fluoro-2,4-pyrimidinediamine p-Toluenesulfonic Acid Salt]
[1]; low cell density
  IC50: < 10 µM
[2]; 100 mg/kg oral, 90 minutes prior to Ab/Ag challenge (pretreatment cell of table empty), C57BL/6 mice
  % inhibition to vehicle control Edema Size ± SEM: 75% and 75.0 ± 6.2%
[3]; CHMC, read-out: in vitro Potency (CHMC IgE)
  IC50: 0.047 µM
[3]; [11]
  IC50: < 10 µM
[3]; [12]
  IC50: < 10 µM

## COc1cc(Nc2ncc(F)c(Nc3ccc4c(n3)NC(=O)C(C)(C)O4)n2)cc(OC)c1OC [Compound 1007, N4-(2,2-Dimethyl-3-oxo-4H-5-pyrid[1,4]oxazin-6-yl)-5-fluoro-N2-(3,4,5-trimethoxyphenyl)-2,4-pyrimidinediamine]
[4]; [5]
  Exposure = Pretreatment Time + 4 hours Plasma Concentration ± SEM: BLQ
[4]; [6]
  Exposure = Pretreatment Time + 4 hours Plasma Concentration ± SEM: BLQ
[2]; [5]
  % inhibition to vehicle control Edema Size ± SEM: 64.3% and 64.3 ± 11.2%
[2]; [6]
  % inhibition to vehicle control Edema Size ± SEM: 78.7% and 78.7 ± 6.3%
[2]; [7]
  % inhibition to vehicle control Edema Size ± SEM: 89.4 ± 2.2% and 98.1 ± 0.8%
[2]; 3 mg/kg oral, pretreatment time 0.5 hrs
  % inhibition to vehicle control Edema Size ± SEM: 86.3 ± 7.9%
[2]; [8]
  % inhibition to vehicle control Edema Size ± SEM: 99.8% and 99.8 ± 0.2%
[2]; 10 mg/kg oral, pretreatment time 0.5 hrs
  % inhibition to vehicle control Edema Size ± SEM: 97.8 ± 1.1%
[2]; 30 mg/kg oral, pretreatment time 0.5 hrs
  % inhibition to vehicle control Edema Size ± SEM: 88.2 ± 5.7%
